Results reported in US7084148B2, “Substituted pyrimidines as selective cyclooxygenase-2 inhibitors” (SmithKline Beecham Corporation, priority 2000, dated 2006).

Key:
human COX-2 = target: T1, human COX-2 (Homo sapiens, UniProt P35354); experiment: Inhibition of PGE2 release in COS cells stably transfected with human COX-2; type: cell-based; conditions: 30 μM arachidonic acid
T1 construct: expressed in transfected cells
T1 sequence (P35354 18-604): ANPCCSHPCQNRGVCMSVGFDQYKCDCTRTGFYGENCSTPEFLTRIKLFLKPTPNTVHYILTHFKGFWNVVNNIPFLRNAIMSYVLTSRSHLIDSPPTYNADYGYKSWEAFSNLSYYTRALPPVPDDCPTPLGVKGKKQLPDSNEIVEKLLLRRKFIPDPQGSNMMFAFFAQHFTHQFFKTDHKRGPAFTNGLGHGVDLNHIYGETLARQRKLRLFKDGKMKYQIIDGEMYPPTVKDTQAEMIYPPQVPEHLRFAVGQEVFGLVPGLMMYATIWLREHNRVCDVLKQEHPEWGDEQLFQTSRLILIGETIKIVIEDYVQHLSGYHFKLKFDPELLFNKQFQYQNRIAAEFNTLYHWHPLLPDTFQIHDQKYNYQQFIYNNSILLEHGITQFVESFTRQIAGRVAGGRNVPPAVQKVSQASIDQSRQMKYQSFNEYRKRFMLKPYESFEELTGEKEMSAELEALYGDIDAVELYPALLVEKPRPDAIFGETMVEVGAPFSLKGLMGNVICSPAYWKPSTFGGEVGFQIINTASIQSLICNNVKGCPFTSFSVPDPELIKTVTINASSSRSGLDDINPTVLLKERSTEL
Procedure: (§1) Inhibitory activity against human COX-1 and COX-2 was assessed in COS cells which had been stably transfected with cDNA for human COX-1 and human COX-2. 24 Hours prior to experiment, COS cells were transferred from the 175 cm^2 flasks in which they were grown, onto 24-well cell culture plates using the following procedure. The incubation medium (Dulbecco's modified eagles medium (DMEM) supplemented with heat-inactivated foetal calf serum (10% v/v), penicillin (100 IU/ml), streptomycin (100 μg/ml) and geneticin (600 μg/ml)) was removed from a flask of confluent cells (1 flask at confluency contains approximately 1×10^7 cells). 5 ml of phosphate buffered saline (PBS) was added to the flask to wash the cells. Having discarded the PBS, cells were then incubated with 5 ml trypsin for 5 minutes in an incubator […]. The flask was then removed from the incubator and 5 ml of fresh incubation medium was added. The contents of the flask was transferred to a 250 ml sterile container and the volume of incubation medium subsequently made up to 100 ml. 1 ml cell suspension was pipetted into each well of 4×24-well cell culture plates. The plates were then placed in an incubator (37° C., 95% air/5% CO2) overnight. If more than 1 flask of cells were required, the cells from the individual flasks were combined before being dispensed into the 24-well plates.
Following the overnight incubation, the incubation medium was completely removed from the 24-well cell culture plates and replaced with 250 μl fresh DMEM (37° C.). The test compounds were made up to 250× the required test concentration in DMSO and were added to the wells in a volume of 1 μl. Plates were then mixed gently by swirling and then placed in an incubator for 1 hour (37° C., 95% air/5% CO2). […] Plates were then incubated for a further 10 minutes, after which the incubation medium was removed from each well of the plates and stored at −20° C., prior to determination of prostaglandin E2 (PGE2) levels using enzyme immunoassay. […] The selectivity ratio of inhibition of COX-1 versus COX-2 was calculated by comparing respective IC50 values.

human COX-1 = target: T2, human COX-1 (Homo sapiens, UniProt P23219); experiment: Inhibition of PGE2 release in COS cells stably transfected with human COX-1; type: cell-based; conditions: 30 μM arachidonic acid
T2 construct: expressed in transfected cells
Procedure: as §1
Following the overnight incubation, the incubation medium was completely removed from the 24-well cell culture plates and replaced with 250 μl fresh DMEM (37° C.). The test compounds were made up to 250× the required test concentration in DMSO and were added to the wells in a volume of 1 μl. Plates were then mixed gently by swirling and then placed in an incubator for 1 hour (37° C., 95% air/5% CO2). Following the incubation period, 10 μl of arachidonic acid (750 μM) was added to each well to give a final arachidonic acid concentration of 30 μM. Plates were then incubated for a further 10 minutes, after which the incubation medium was removed from each well of the plates and stored at −20° C., prior to determination of prostaglandin E2 (PGE2) levels using enzyme immunoassay. The inhibitory potency of the test compound was expressed as an IC50 value, which is defined as the concentration of the compound required to inhibit the PGE2 release from the cells by 50%. The selectivity ratio of inhibition of COX-1 versus COX-2 was calculated by comparing respective IC50 values.

T2 sequence (P23219 24-599): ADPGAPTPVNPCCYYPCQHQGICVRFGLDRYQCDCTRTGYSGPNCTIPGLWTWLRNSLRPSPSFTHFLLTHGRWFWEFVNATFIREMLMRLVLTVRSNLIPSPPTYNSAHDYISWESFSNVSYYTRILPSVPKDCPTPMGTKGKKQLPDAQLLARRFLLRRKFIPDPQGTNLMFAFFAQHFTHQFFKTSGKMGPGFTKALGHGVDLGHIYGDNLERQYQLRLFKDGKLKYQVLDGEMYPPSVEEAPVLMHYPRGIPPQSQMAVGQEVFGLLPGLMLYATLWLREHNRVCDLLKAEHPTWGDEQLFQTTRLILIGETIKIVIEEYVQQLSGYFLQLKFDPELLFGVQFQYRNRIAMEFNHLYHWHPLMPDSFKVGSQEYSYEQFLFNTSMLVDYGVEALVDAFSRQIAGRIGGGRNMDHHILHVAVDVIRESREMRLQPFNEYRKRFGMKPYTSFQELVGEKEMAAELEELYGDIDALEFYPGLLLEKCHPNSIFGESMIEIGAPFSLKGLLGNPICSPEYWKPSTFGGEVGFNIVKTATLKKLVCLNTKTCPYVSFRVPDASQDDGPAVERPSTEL

IC50 (human COX-2) | IC50 (human COX-1) | Compound
0.018 µM | > 91 µM | CS(=O)(=O)c1ccc(-c2cc(C(F)(F)F)nc(NC3CCOCC3)n2)cc1 [Example 1, 4-[4-(methylsulfonyl)phenyl]-N-tetrahydro-2H-pyran-4-yl-6-(trifluoromethyl)pyrimidin-2-amine]
0.0168 µM | 60.4 µM | CN(c1nc(-c2ccc(S(C)(=O)=O)cc2)cc(C(F)(F)F)n1)C1CCOCC1 [Example 2, 4-[4-(Methylsulfonyl)phenyl]-N-methyl-N-tetrahydro-2H-pyran-4-yl-6-(trifluoromethyl)pyrimidin-2-amine]
0.0249 µM | 69.7 µM | CCN(c1nc(-c2ccc(S(C)(=O)=O)cc2)cc(C(F)(F)F)n1)C1CCOCC1 [Example 3, 4-[4-(Methylsulfonyl)phenyl]-N-ethyl-N-tetrahydro-2H-pyran-4-yl-6-(trifluoromethyl)pyrimidin-2-amine]
0.143 µM | 71.8 µM | CCCCN(c1nc(-c2ccc(S(C)(=O)=O)cc2)cc(C(F)(F)F)n1)C1CCOCC1 [Example 4, 4-[4-(Methylsulfonyl)phenyl]-N-butyl-N-tetrahydro-2H-pyran-4-yl-6-(trifluoromethyl)pyrimidin-2-amine]
